Data published in patent US11648254B2 (Kumquat Biosciences Inc., priority 2021, dated 2023).

Molecular target: SOS1 (Homo sapiens (Human), UniProt Q07889)
Test: Ras-SOS interaction assay (HTRF)
Type: biochemical
Details: K-RasG13D utilized, read-out: IC50 inhibition of SOS
Description: The ability of any compound of the present disclosure to reduce a Ras protein signaling output by, e.g., interfering or disrupting interaction (or binding) between SOS1 and a Ras protein can be assessed in vitro. For example, the equilibrium interaction of human SOS1 (hSOS1) with human wildtype Kras or K-Ras mutant (e.g., hK-Ras G12C mutant, or hK-RasG12C) can be assessed as a proxy or an indication for a subject compound's ability to inhibit SOS. Detection of such interaction is achieved by measuring homogenous time-resolved fluorescence resonance energy transfer (HTRF) from (i) a fluorescence resonance energy transfer (FRET) donor (e.g., antiGST-Europium) that is bound to GST-tagged K-RasG12C to (ii) a FRET acceptor (e.g., anti-6His-XL665) bound to a His-tagged hSOS1.
The assay buffer can contain 5 mM HEPES pH 7.4, 150 mM NaCl, 10 mM EDTA, 1 mM DTT, 0.05% BSA, 0.0025% (v/v) Igepal and 100 mM KF. A Ras working solution is prepared in assay buffer containing typically 10 nM of the protein construct (e.g., GST-tagged hK-RasG12C) and 2 nM of the FRET donor (e.g., antiGST-Eu(K) from Cisbio, France). A SOS1 working solution is prepared in assay buffer containing typically 10 nM of the protein construct (e.g., His-hSOS1) and 10 nM of the FRET acceptor (e.g., anti-6His-XL665 from Cisbio, France). An inhibitor control solution is prepared in assay buffer containing 10 nM of the FRET acceptor without the SOS1 protein.
A fixed reaction mixture with or without test compound is transferred into a 384-well plate. Ras working solution is added to all wells of the test plate. SOS1 working solution is added to all wells except for those that are subsequently filled the inhibitor control solution. After approximately 60 min incubation, the fluorescence is measured with a M1000Pro plate reader (Tecan) using HTRF detection (excitation 337 nm, emission 1: 620 nm, emission 2: 665 nm). Compounds are tested in duplicates at different concentrations (for example, 10 μM, 2.5 μM, 0.63 μM, 0.16 μM, 0.04 μM, 0.01 μM test compound). The ratiometric data (i.e., emission 2 divided by emission 1) is used to calculate IC50 values against SOS1 using GraphPad Prism (GraphPad software).

Chain of SOS1 (Q07889 564-1049): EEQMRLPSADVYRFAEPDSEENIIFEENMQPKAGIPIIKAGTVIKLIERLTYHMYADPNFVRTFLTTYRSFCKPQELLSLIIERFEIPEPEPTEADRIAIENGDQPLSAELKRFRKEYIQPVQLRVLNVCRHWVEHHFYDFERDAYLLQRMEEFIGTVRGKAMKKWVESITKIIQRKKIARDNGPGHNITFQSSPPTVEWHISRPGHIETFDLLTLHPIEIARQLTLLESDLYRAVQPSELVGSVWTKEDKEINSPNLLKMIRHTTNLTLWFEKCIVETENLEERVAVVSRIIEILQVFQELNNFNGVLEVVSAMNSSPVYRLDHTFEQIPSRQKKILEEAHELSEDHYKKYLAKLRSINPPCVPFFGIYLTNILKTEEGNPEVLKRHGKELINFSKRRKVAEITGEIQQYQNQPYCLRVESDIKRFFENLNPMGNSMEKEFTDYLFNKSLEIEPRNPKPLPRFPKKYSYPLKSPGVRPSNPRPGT

Compared with `Cc1nc(N[C@H](C)c2cccc(C(F)F)c2F)c2cc(C3(C(F)F)CC3)c(OC3COC3)nc2n1` [Compound 186, (R)—N-(1-(3-(difluoromethyl)-2-fluorophenyl)ethyl)-6-(1-(difluoromethyl)cyclopropyl)-2-methyl-7-(oxetan-3-yloxy)pyrido[2,3-d]pyrimidin-4-amine], `Cc1nc(N[C@H](C)c2cccc(C(F)F)c2F)c2cc(C3(C#N)CC3)c(NC3COC3)nc2n1` [Compound 225, (R)-1-(4-((1-(3-(difluoromethyl)-2-fluorophenyl)ethyl)amino)-2-methyl-7-(oxetan-3-ylamino)pyrido[2,3-d]pyrimidin-6-yl)cyclopropane-1-carbonitrile] is higher in IC50: < 100 nM for the first, 100 to 1000 nM for the second. The first is the more potent here.

First: Cc1nc(N[C@H](C)c2cccc(C(F)(F)F)c2C)c2cc(N3CCN(C(C)C)CC3)c(Cl)nc2n1 [Compound 201, (R)-7-chloro-6-(4-isopropylpiperazin-1-yl)-2-methyl-N-(1-(2-methyl-3-(trifluoromethyl)phenyl)ethyl)pyrido[2,3-d]pyrimidin-4-amine]
Second: COc1nc2nc(C)nc(N[C@H](C)c3cccc(C(F)(F)F)c3F)c2cc1C1(C#N)CCN(C(C)C)CC1 [Compound 306, (R)-4-(4-((1-(2-fluoro-3-(trifluoromethyl)phenyl)ethyl)amino)-7-methoxy-2-methylpyrido[2,3-d]pyrimidin-6-yl)-1-isopropylpiperidine-4-carbonitrile]
The IC50 of the first is lower: < 100 nM for the first, 100 to 1000 nM for the second.

First: COc1nc2nc(C)nc(N[C@H](C)c3cccc(C(F)(F)CCC4CN(C(=O)OC(C)(C)C)C4)c3F)c2cc1C1(C#N)CC1 [Compound 208, tert-butyl (R)-3-(3-(3-(1-((6-(1-cyanocyclopropyl)-7-methoxy-2-methylpyrido[2,3-d]pyrimidin-4-yl)amino)ethyl)-2-fluorophenyl)-3,3-difluoropropyl)azetidine-1-carboxylate]
Second: COc1nc2nc(C)nc(N[C@H](C)c3cccc(C(F)(F)C4CN(C(C)C)C4)c3F)c2cc1C1(C#N)CC1 [Compound 284, (R)-1-(4-((1-(3-(difluoro(1-isopropylazetidin-3-yl)methyl)-2-fluorophenyl)ethyl)amino)-7-methoxy-2-methylpyrido[2,3-d]pyrimidin-6-yl)cyclopropane-1-carbonitrile]
The IC50 of the first is higher: 100 to 1000 nM for the first, < 100 nM for the second. The second is the more potent here.

`Cc1nc(N[C@H](C)c2cccc(C(F)F)c2F)c2cc(C3(C#N)CC3)c(NC3CCOCC3)nc2n1` [Compound 228, (R)-1-(4-((1-(3-(difluoromethyl)-2-fluorophenyl)ethyl)amino)-2-methyl-7-((tetrahydro-2H-pyran-4-yl)amino)pyrido[2,3-d]pyrimidin-6-yl)cyclopropane-1-carbonitrile] and `COc1nc2nc(OCC3CCOCC3)nc(N[C@H](C)c3cccc(C(F)F)c3F)c2cc1C1(C#N)CC1` [Compound 275, (R)-1-(4-((1-(3-(difluoromethyl)-2-fluorophenyl)ethyl)amino)-7-methoxy-2-((tetrahydro-2H-pyran-4-yl)methoxy)pyrido[2,3-d]pyrimidin-6-yl)cyclopropane-1-carbonitrile] fall in the same range of IC50: 100 to 1000 nM for the first, 100 to 1000 nM for the second.

`C[C@@H](Nc1ncnc2nc(O[C@H]3CCOC3)c(C3(C#N)CC3)cc12)c1cccc(C(F)F)c1F` [Compound 230, 1-(4-(((R)-1-(3-(difluoromethyl)-2-fluorophenyl)ethyl)amino)-7-(((S)-tetrahydrofuran-3-yl)oxy)pyrido[2,3-d]pyrimidin-6-yl)cyclopropane-1-carbonitrile] and `COc1nc2nc(N3CC(N(C)C)C3)nc(N[C@H](C)c3cccc(C(F)F)c3F)c2cc1C1(C#N)CC1` [Compound 237, (R)-1-(4-((1-(3-(difluoromethyl)-2-fluorophenyl)ethyl)amino)-2-(3-(dimethylamino)azetidin-1-yl)-7-methoxypyrido[2,3-d]pyrimidin-6-yl)cyclopropane-1-carbonitrile] fall in the same range of IC50: 100 to 1000 nM for the first, 100 to 1000 nM for the second.

First: COc1nc2nc(C)nc(N[C@H](C)c3cccc(C(F)(F)C(C)(C)OC4CN(C(=O)OC(C)(C)C)C4)c3F)c2cc1N1CCN(C(C)C)CC1 [Compound 241, tert-butyl (R)-3-((1,1-difluoro-1-(2-fluoro-3-(1-((6-(4-isopropylpiperazin-1-yl)-7-methoxy-2-methylpyrido[2,3-d]pyrimidin-4-yl)amino)ethyl)phenyl)-2-methylpropan-2-yl)oxy)azetidine-1-carboxylate]
Second: COc1nc2nc(C)nc(N[C@H](C)c3cccc(C(F)(F)F)c3F)c2cc1N1CCN(C(=O)C2CN(C)CCO2)CC1 (stereo partly drawn) [Compound 311, (4-(4-(((R)-1-(2-fluoro-3-(trifluoromethyl)phenyl)ethyl)amino)-7-methoxy-2-methylpyrido[2,3-d]pyrimidin-6-yl)piperazin-1-yl)(4-methylmorpholin-2-yl)methanone]
The IC50 of the first is lower: < 100 nM for the first, 100 to 1000 nM for the second.

First: Cc1nc(N[C@H](C)c2cccc(C(F)F)c2F)c2cc(C3CCN(C)CC3)c(OC3COC3)nc2n1 [Compound 246, (R)-N-(1-(3-(difluoromethyl)-2-fluorophenyl)ethyl)-2-methyl-6-(1-methylpiperidin-4-yl)-7-(oxetan-3-yloxy)pyrido[2,3-d]pyrimidin-4-amine]
Second: COc1nc2ncnc(N[C@H](C)c3cccc(C(F)(F)F)c3F)c2cc1C1CCN(C)CC1 [Compound 281, (R)-N-(1-(2-fluoro-3-(trifluoromethyl)phenyl)ethyl)-7-methoxy-6-(1-methylpiperidin-4-yl)pyrido[2,3-d] pyrimidin-4-amine]
The IC50 of the first is lower: < 100 nM for the first, 100 to 1000 nM for the second. The first is the more potent here.

Compared with `Cc1nc(N[C@H](C)c2cccc3c2OC(C)(C)C3(F)F)c2cc(N3CCN(C(C)C)CC3)c(OCC3COC3)nc2n1` [Compound 274, (R)—N-(1-(3,3-difluoro-2,2-dimethyl-2,3-dihydrobenzofuran-7-yl)ethyl)-6-(4-isopropylpiperazin-1-yl)-2-methyl-7-(oxetan-3-ylmethoxy)pyrido[2,3-d]pyrimidin-4-amine], `COc1nc2nc(C)nc(N[C@H](C)c3cccc(C(F)(F)F)c3F)c2cc1N1CCN(C(=O)[C@H]2COCCO2)CC1` [Compound 310, ((R)-1,4-dioxan-2-yl)(4-(4-(((R)-1-(2-fluoro-3-(trifluoromethyl)phenyl)ethyl)amino)-7-methoxy-2-methylpyrido[2,3-d]pyrimidin-6-yl)piperazin-1-yl)methanone] is lower in IC50: 100 to 1000 nM for the first, < 100 nM for the second.

`COc1nc2ncnc(N[C@H](C)c3cccc(C(F)(F)CO)c3F)c2cc1N1CCS(=O)(=O)CC1` [Compound 279, (R)-4-(4-((1-(3-(1,1-difluoro-2-hydroxyethyl)-2-fluorophenyl)ethyl)amino)-7-methoxypyrido[2,3-d]pyrimidin-6-yl)thiomorpholine 1,1-dioxide] and `COc1nc2ncnc(N[C@H](C)c3cccc(C(F)(F)F)c3C)c2cc1C1CCN(C)CC1` [Compound 282, (R)-7-methoxy-N-(1-(2-methyl-3-(trifluoromethyl)phenyl)ethyl)-6-(1-methylpiperidin-4-yl)pyrido[2,3-d] pyrimidin-4-amine] fall in the same range of IC50: 100 to 1000 nM for the first, 100 to 1000 nM for the second.

`COc1nc2ncnc(N[C@H](C)c3cccc(C(F)(F)F)c3F)c2cc1C1(C#N)CCN(C(C)C)CC1` [Compound 280, (R)-4-(4-((1-(2-fluoro-3-(trifluoromethyl)phenyl)ethyl)amino)-7-methoxypyrido[2,3-d]pyrimidin-6-yl)-1-isopropylpiperidine-4-carbonitrile] and `COc1nc2nc(OCC3CN(C(C)C)C3)nc(N[C@H](C)c3cccc(C(F)(F)F)c3F)c2cc1C1CCS(=O)(=O)CC1` [Compound 286, (R)-4-(4-((1-(2-fluoro-3-(trifluoromethyl)phenyl)ethyl)amino)-2-((1-isopropylazetidin-3-yl)methoxy)-7-methoxypyrido[2,3-d]pyrimidin-6-yl)tetrahydro-2H-thiopyran 1,1-dioxide] fall in the same range of IC50: 100 to 1000 nM for the first, 100 to 1000 nM for the second.

First: COc1nc2nc(C)nc(N[C@H](C)c3cccc(C(F)(F)F)c3F)c2cc1N1CCN(C2CCOCC2)CC1 [Compound 290, (R)-N-(1-(2-fluoro-3-(trifluoromethyl)phenyl)ethyl)-7-methoxy-2-methyl-6-(4-(tetrahydro-2H-pyran-4-yl)piperazin-1-yl)pyrido[2,3-d]pyrimidin-4-amine]
Second: Cc1nc(N[C@H](C)c2cccc(C(F)F)c2F)c2cc(C3(C#N)CC3)c(NCC(C)(C)O)nc2n1 [Compound 319, (R)-1-(4-((1-(3-(difluoromethyl)-2-fluorophenyl)ethyl)amino)-7-((2-hydroxy-2-methylpropyl)amino)-2-methylpyrido[2,3-d]pyrimidin-6-yl) cyclopropane-1-carbonitrile]
The IC50 of the first is lower: < 100 nM for the first, 100 to 1000 nM for the second.

Same assay, conditions: K-RasG13D, read-out: IC50 value against SOS1

`Cc1nc(N[C@H](C)c2cccc(C(F)(F)F)c2C)c2cc(N3CCN(C(C)C)CC3)c(Cl)nc2n1` [Compound 201, (R)-7-chloro-6-(4-isopropylpiperazin-1-yl)-2-methyl-N-(1-(2-methyl-3-(trifluoromethyl)phenyl)ethyl)pyrido[2,3-d]pyrimidin-4-amine] and `COc1nc2nc(C)nc(N[C@H](C)c3cccc(C(F)(F)F)c3F)c2cc1N1CCN(C2CCOCC2)CC1` [Compound 290, (R)-N-(1-(2-fluoro-3-(trifluoromethyl)phenyl)ethyl)-7-methoxy-2-methyl-6-(4-(tetrahydro-2H-pyran-4-yl)piperazin-1-yl)pyrido[2,3-d]pyrimidin-4-amine] cannot be ordered by IC50: < 50 nM for the first, < 50 nM for the second.

In the case of `Cc1nc(N[C@H](C)c2cccc(C(F)F)c2F)c2cc(C3CCN(C)CC3)c(OC3COC3)nc2n1` [Compound 246, (R)-N-(1-(3-(difluoromethyl)-2-fluorophenyl)ethyl)-2-methyl-6-(1-methylpiperidin-4-yl)-7-(oxetan-3-yloxy)pyrido[2,3-d]pyrimidin-4-amine], the IC50 is reported as < 50 nM.
